This is an account of results in patent US9475802B2, “Inhibitors of viral replication, their process of preparation and their therapeutical uses” (LABORATOIRE BIODIM, priority 2012, dated 2016).

The test system of the assay is NL4-3 strain of HIV-1. In words: Inhibition of HIV replication: cyto-protection in Cell-Titer-Glo viability assay, MT4 cells infected with NL4-3 virus. The conditions noted are these: Human immunodeficiency virus 1, NL43, 120 h, concentration leading to 50% of cyto-protection, 5 days incubation, CellTiter-Glo luminescence. Type of assay: cell-based. The procedure: The antiviral activity, particularly against HIV, of compounds according to the invention is evaluated by the protocol described below.
Preparation of Virus Stock of the NL4-3 Strain of HIV-1 (Adachi et al, J Virol, 1986, 59(2):284-91).
The virus was prepared as described in Lopez et al (Lopez et al, Proc Natl Acad Sci USA., 2006, 103(40):14947-52, by transfecting 2×10^6 293 T cells (CRL-1573, ATCC) with following modifications: 6 μg of NL4-3 proviral DNA molecular clone were mixed with Fugene 6 transfection reagent from Roche, and used according to manufacturer's instructions. Forty eight hours later, transfected cell supernatants were harvested, filtered through 0.45-μm-pore-size filters, quantified for HIV-1 p24 antigen by using a Innotest HIV antigen mAb assay (Ingen) according to manufacturer's instructions, and used in infection experiments.
Serial dilutions of compounds to be tested were prepared in complete RPMI medium from 10 mM DMSO stock solutions, and distributed in a volume of 20 μL in 96 well Falcon 353072 Microtest™ tissue culture plate, in order to get 0.5% DMSO final concentration in each well, after the addition of infected cells. Control wells contained also 0.5% DMSO final concentration but no compound.
MT^4 cells (from the NIH AIDS Research and Reference Reagent Program) in RPMI complete medium were counted (10×10^6 cells per well in Falcon 353047 Multiwell™ 24 well) and infected for 2 hours at 37°, at a multiplicity of infection (moi) of 0.0001-0.00001. Cells were then centrifuged 3 min at 3000 rpm, and washed two times in 1 ml PBS to remove viruses that have not entered in cells. Infected cells were resuspended in complete RPMI at 1.25×10^6 cells/ml, and 80 μl of infected cells were distributed in each well containing compounds to be tested or control wells. The plates were then incubated at 37° for 5 days.
Assay Used to Measure the Inhibition of HIV Replication by the Compounds (According to (According to Gregg S. Jones et al., Antimicrobial Agents and Chemotherapy, 2009, 53 (3): 1194-1203).
After 5 days of incubation, 50 μl of CellTiter-Glo reagent (Promega Biosciences, Inc., Madison Wis., USA) were added to each well. Cell lysis was carried out at room temperature during 10 min, 150 μl of lysates were transferred in Packard Optiplate 96 well, and luminescence was read on a Fluoroskan (Thermo Scientific).
The EC50, or effective concentration 50, is the concentration of compound leading to 50% of cyto-protection in a Cell-Titer-Glo® viability assay based on MT^4 cells infected with NL4-3 virus (table 1).
In the case of `CC(C)(C)OC(C(=O)O)c1c(C(F)(F)F)ccc(-c2ccc(=O)n(Cc3ccccc3)c2)c1-c1ccc2c(c1)CCCO2` (stereo not shown) [Example 26, 2-[3-(1-benzyl-6-oxo-1,6-dihydropyridin-3-yl)-2-(3,4-dihydro-2H-1-benzopyran-6-yl)-6-(trifluoromethyl)phenyl]-2-(tert-butoxy)acetic acid], a half-maximal response (EC50) required 440 nM. The same measure for `CC(C)(C)OC(C(=O)O)c1c(C(F)(F)F)ccc(-c2ccc(=O)n(CC3CC3)c2)c1-c1ccc2c(c1)CCCO2` (stereo not shown) [Example 27, 2-(tert-butoxy)-2-{3-[1-(cyclopropylmethyl)-6-oxo-1,6-dihydropyridin-3-yl]-2-(3,4-dihydro-2H-1-benzopyran-6-yl)-6-(trifluoromethyl)phenyl}acetic acid]: 79 nM; for `CCCc1cc(-c2ccc(C(F)(F)F)c(C(OC(C)(C)C)C(=O)O)c2-c2ccc3c(c2)CCCO3)ccn1` (stereo not shown) [Example 28, 2-(tert-butoxy)-2-[2-(3,4-dihydro-2H-1-benzopyran-6-yl)-3-(2-propylpyridin-4-yl)-6-(trifluoromethyl)phenyl]acetic acid]: 78 nM. With `CCCc1cccc(-c2ccc(C(F)(F)F)c(C(OC(C)(C)C)C(=O)O)c2-c2ccc3c(c2)CCCO3)c1` (stereo not shown) [Example 29, 2-(tert-butoxy)-2-[2-(3,4-dihydro-2H-1-benzopyran-6-yl)-3-(3-propylphenyl)-6-(trifluoromethyl)phenyl]acetic acid], the EC50 (as a rule, the concentration at which the effect is half-maximal) came out at 430 nM. Under `CC(C)(C)OC(C(=O)O)c1c(C(F)(F)F)ccc(-c2ccc(=O)n(CC3CCC3)c2)c1-c1ccc2c(c1)CCCO2` (stereo not shown) [Example 30, 2-(tert-butoxy)-2-{3-[1-(cyclobutylmethyl)-6-oxo-1,6-dihydropyridin-3-yl]-2-(3,4-dihydro-2H-1-benzopyran-6-yl)-6-(trifluoromethyl)phenyl}acetic acid] stands 67 nM. Under `CC(C)(C)OC(C(=O)O)c1c(C(F)(F)F)ccc(-c2ccc(=O)n(CCC3CC3)c2)c1-c1ccc2c(c1)CCCO2` (stereo not shown) [Example 31, 2-(tert-butoxy)-2-{3-[1-(2-cyclopropylethyl)-6-oxo-1,6-dihydropyridin-3-yl]-2-(3,4-dihydro-2H-1-benzopyran-6-yl)-6-(trifluoromethyl)phenyl}acetic acid] stands 260 nM; under `CC(C)Cn1cc(-c2ccc(C(F)(F)F)c(C(OC(C)(C)C)C(=O)O)c2-c2ccc3c(c2)CCCO3)ccc1=O` (stereo not shown) [Example 32, 2-(tert-butoxy)-2-[2-(3,4-dihydro-2H-1-benzopyran-6-yl)-3-[1-(2-methylpropyl)-6-oxo-1,6-dihydropyridin-3-yl]-6-(trifluoromethyl)phenyl]acetic acid], 85 nM.

On to `Cc1ccc(-c2ccc(=O)n(CC3CCC3)c2)c(-c2ccc3c(c2C)CCCO3)c1C(OC(C)(C)C)C(=O)O` (stereo not shown) [Example 37, 2-(tert-butoxy)-2-[3-(1-cyclobutylmethyl-6-oxo-1,6-dihydro-pyridin-3-yl)-6-methyl-2-[5-methyl-(3,4-dihydro-2H-1-benzopyran-6-yl)]phenyl]acetic acid], for which the EC50 turned out to be 310 nM. Under `CC(C)(C)OC(C(=O)O)c1c(C(F)(F)F)ccc(-c2cccn(CC3CCC3)c2=O)c1-c1ccc2c(c1)CCCO2` (stereo not shown) [Example 38, 2-(tert-butoxy)-2-{3-[1-(cyclobutylmethyl)-2-oxo-1,2-dihydropyridin-3-yl]-2-(3,4-dihydro-2H-1-benzopyran-6-yl)-6-(trifluoromethyl)phenyl}acetic acid] stands 130 nM; under `CC(C)(C)OC(C(=O)O)c1c(C(F)(F)F)ccc(-c2ccc(=O)n(C3CC3)c2)c1-c1ccc2c(c1)CCCO2` (stereo not shown) [Example 39, 2-(tert-butoxy)-2-[3-(1-cyclopropyl-6-oxo-1,6-dihydropyridin-3-yl)-2-(3,4-dihydro-2H-1-benzopyran-6-yl)-6-(trifluoromethyl)phenyl]acetic acid], 330 nM.
